Reference: EP0314302A2, “Herbicidal o-carbomethoxy-sulfonylureas” (E.I. DU PONT DE NEMOURS AND COMPANY, priority 1987, dated 1989)

Tests used:
Asystasia intrusa = experiment: Test 4 plantation crop weeds, postemergence; format: in vivo; conditions: scale 0-100; for Control Rating 24 DAT: Table 4, at 4-leaf stage
Text: (§1) The object of this test was to evaluate the efficacy of the compound of this invention on weeds that infest some plantation crops at different growth stages of the weeds. Asystasia intrusa, Mikania cordata, goldenrod Solidago spp, Boston fern Nephrolepis exalata, and lalang Imparata cylindrica were planted in 15-cm plastic pots. Plants were sprayed postemergence with Compound I in a non-phytotoxic solvent. The Asystasia plants ranged in growth from 4 leaves to 9 leaves and very branched, Mikania had 6 leaves to vining, the goldenrod was branching and the Boston fern was growing vigorously. The degree of weed control was visually rated 20 to 24 days after treatment (DAT). Control ratings are based on the scale of 0 to 100 where 0 = no effect, 20 = minimal control and 100 = complete control. Variations in the results of the tests could be due to the fact that the tests were run at different times of the year or due to the stage of growth of the weeds.

Mikania cordata = experiment: Test 4 plantation crop weeds, postemergence; format: in vivo; conditions: scale 0-100
Text: as §1

Nephrolepis exalata = experiment: Test 4 plantation crop weeds, postemergence; format: in vivo; conditions: Table 4, scale 0-100
Text: as §1

Alfalfa = experiment: Test 7 postemergence; format: in vivo; conditions: scale 0-100
Procedure: (§2) Individual 11.4-cm plastic pots filled with planting medium were seeded with rape, wild radish (Raphanus raphanistruna). tansy mustard (Descurainia pinnata), ball mustard (Neslia paniculata), black mustard (Brassica nigra), yellow mustard, brown mustard, lentils, safflower, flax, sunflower, peanut, vetch, alfalfa, field bean, pea, violet (Viola spp), Kochia (Kochia spp), Russian thistle (Salsola spp), Matricaria spp, groundsel (Senecio spp), shepherdspurse (Capsella bursa-pastoris), nightshade (Solanum spp), sowthistle (Sonchus spp), sugar beet, wheat, "Bonanza" barley and "Morex" barley, Kentucky bluegrass (Poa pratensis), red clover (Trifolium pratense), dandelion (Taraxacum spp) and buckhorn plantain (Plantago lanceolata).
(§3) Plants were treated postemergence with the compound formulated with a non-phytotoxic carrier. Plants were visually rated 18 days after treatment (DAT). Response ratings were based on the scale of 0 to 100 where 0 = no effect, 20 = minimal injury and 100 = complete control.

Bonanza barley = experiment: Test 7 postemergence; format: in vivo; conditions: scale 0-100
Procedure: as §2, §3

Brown mustard = experiment: Test 7 postemergence; format: in vivo; conditions: scale 0-100
Procedure: as §2, §3

Field bean = experiment: Test 7 postemergence; format: in vivo; conditions: scale 0-100
Procedure: as §2, §3

Flax = experiment: Test 7 postemergence; format: in vivo; conditions: scale 0-100
Procedure: as §2, §3

Lentils = experiment: Test 7 postemergence; format: in vivo; conditions: scale 0-100
Procedure: as §2, §3

Morex barley = experiment: Test 7 postemergence; format: in vivo; conditions: scale 0-100
Procedure: as §2, §3

Onicutal mustard = experiment: Test 7 postemergence; format: in vivo; conditions: scale 0-100
Procedure: as §2, §3

Peanut = experiment: Test 7 postemergence; format: in vivo; conditions: scale 0-100
Procedure: as §2, §3

Pea = experiment: Test 7 postemergence; format: in vivo; conditions: scale 0-100
Procedure: as §2, §3

Rape = experiment: Test 7 postemergence; format: in vivo; conditions: scale 0-100
Procedure: as §2, §3

Safflower = experiment: Test 7 postemergence; format: in vivo; conditions: scale 0-100
Procedure: as §2, §3

Sugar beet = experiment: Test 7 postemergence; format: in vivo; conditions: scale 0-100
Procedure: as §2, §3

Sunflower = experiment: Test 7 postemergence; format: in vivo; conditions: scale 0-100
Procedure: as §2, §3

Vetch = experiment: Test 7 postemergence; format: in vivo; conditions: scale 0-100
Procedure: as §2, §3

Wheat = experiment: Test 7 postemergence; format: in vivo; conditions: scale 0-100
Procedure: as §2, §3

Yellow mustard = experiment: Test 7 postemergence; format: in vivo; conditions: scale 0-100
Procedure: as §2, §3

Sugarcane = experiment: Test 9 postemergence; format: in vivo; conditions: scale 0-100
Annual ryegrass = experiment: Test 10 postemergence safety to crops and weed control; format: in vivo, Lolium multiflorum; conditions: 16 g/ha, scale 0-100
Procedure: The object of these tests was to evaluate the compound of this invention for postemergence safety to crops and weed control. Seedling and budded Macedine grapes were grown in 11.4-cm pots. Flax, green foxtail (Setaria viridis), "Morex" barley, wild oats (Avena fatua), "Era" wheat, annual ryegrass (Lolium multiflorum), wild radish (Raphanus raphanistrum), rape, sunflower, chickweed (Stellaria media) and wild buckwheat (Polygonum convolvulus) were seeded in windowsill pots.
The plants were sprayed postemergence with Compound I in a non-phytotoxic solvent. Plants were visually rated 15 and 27 days after treatment (DAT). Injury and weed control ratings were based on the scale of 0 to 100 where 0 = no effect, 20 minimal control and 100 = complete control.

[1] = Table 6, profusely branching, 8 g/ha
[2] = Table 6, profusely branching, 16 g/ha
[3] = Table 6, profusely branching, 32 g/ha
[4] = Table 6, profusely branching, 64 g/ha

## COC(=O)c1cccnc1S(=O)(=O)NC(=O)Nc1nc(OC)cc(OC)n1 [Compound I, 2-[[(4,6-dimethoxypyrimidin-2-yl)aminocarbonyl]aminosulfonyl]-3-pyridinecarboxylic acid, methyl ester]
Asystasia intrusa; 4 g/ha
  Control Rating 24 DAT: 20
Asystasia intrusa; 8 g/ha
  Control Rating 24 DAT: 30
Asystasia intrusa; 16 g/ha
  Control Rating 24 DAT: 40
Asystasia intrusa; 32 g/ha
  Control Rating 24 DAT: 50
Asystasia intrusa; 64 g/ha
  Control Rating 24 DAT: 60
Asystasia intrusa; Table 5, at 6 to 9-leaf stage, 8 g/ha
  Control Rating 20 DAT: 0
Asystasia intrusa; Table 5, at 6 to 9-leaf stage, 16 g/ha
  Control Rating 20 DAT: 60
Asystasia intrusa; Table 5, at 6 to 9-leaf stage, 32 g/ha
  Control Rating 20 DAT: 90
Asystasia intrusa; Table 5, at 6 to 9-leaf stage, 64 g/ha
  Control Rating 20 DAT: 100
Asystasia intrusa; [1]
  Control Rating 20 DAT: 0
Asystasia intrusa; [2]
  Control Rating 20 DAT: 0
Asystasia intrusa; [3]
  Control Rating 20 DAT: 0
Asystasia intrusa; [4]
  Control Rating 20 DAT: 30
Mikania cordata; Table 5, at 6 to 8-leaf stage, 8 g/ha
  Control Rating 20 DAT: 0
Mikania cordata; Table 5, at 6 to 8-leaf stage, 16 g/ha
  Control Rating 20 DAT: 0
Mikania cordata; Table 5, at 6 to 8-leaf stage, 32 g/ha
  Control Rating 20 DAT: 0
Mikania cordata; Table 5, at 6 to 8-leaf stage, 64 g/ha
  Control Rating 20 DAT: 30
Mikania cordata; [1]
  Control Rating 20 DAT: 0
Mikania cordata; [2]
  Control Rating 20 DAT: 0
Mikania cordata; [3]
  Control Rating 20 DAT: 0
Mikania cordata; [4]
  Control Rating 20 DAT: 0
Mikania cordata; Table 7, vining and profusely branching, 8 g/ha
  Control Rating 22 DAT: 0
Mikania cordata; Table 7, vining and profusely branching, 16 g/ha
  Control Rating 22 DAT: 0
Mikania cordata; Table 7, vining and profusely branching, 32 g/ha
  Control Rating 22 DAT: 0
Mikania cordata; Table 7, vining and profusely branching, 64 g/ha
  Control Rating 22 DAT: 20
Mikania cordata; Table 8, 16 g/ha
  Control Rating 22 DAT: 0
Mikania cordata; Table 8, 32 g/ha
  Control Rating 22 DAT: 0
Mikania cordata; Table 8, 64 g/ha
  Control Rating 22 DAT: 20
Nephrolepis exalata; 4 g/ha
  Control Rating 24 DAT: 0
Nephrolepis exalata; 8 g/ha
  Control Rating 24 DAT: 0
Nephrolepis exalata; 16 g/ha
  Control Rating 24 DAT: 40
Nephrolepis exalata; 32 g/ha
  Control Rating 24 DAT: 60
Nephrolepis exalata; 64 g/ha
  Control Rating 24 DAT: 80
Alfalfa; 16 g/ha
  Plant Injury Rating 18 DAT: 100
Alfalfa; 32 g/ha
  Plant Injury Rating 18 DAT: 100
Bonanza barley; 16 g/ha
  Plant Injury Rating 18 DAT: 90
Bonanza barley; 32 g/ha
  Plant Injury Rating 18 DAT: 100
Brown mustard; 16 g/ha
  Plant Injury Rating 18 DAT: 100
Brown mustard; 32 g/ha
  Plant Injury Rating 18 DAT: 100
Field bean; 16 g/ha
  Plant Injury Rating 18 DAT: 100
Field bean; 32 g/ha
  Plant Injury Rating 18 DAT: 100
Flax; 16 g/ha
  Plant Injury Rating 18 DAT: 100
Flax; 32 g/ha
  Plant Injury Rating 18 DAT: 100
Lentils; 16 g/ha
  Plant Injury Rating 18 DAT: 100
Lentils; 32 g/ha
  Plant Injury Rating 18 DAT: 100
Morex barley; 16 g/ha
  Plant Injury Rating 18 DAT: 90
Morex barley; 32 g/ha
  Plant Injury Rating 18 DAT: 100
Onicutal mustard; 16 g/ha
  Plant Injury Rating 18 DAT: 100
Onicutal mustard; 32 g/ha
  Plant Injury Rating 18 DAT: 100
Peanut; 16 g/ha
  Plant Injury Rating 18 DAT: 100
Peanut; 32 g/ha
  Plant Injury Rating 18 DAT: 100
Pea; 16 g/ha
  Plant Injury Rating 18 DAT: 100
Pea; 32 g/ha
  Plant Injury Rating 18 DAT: 100
Rape; 16 g/ha
  Plant Injury Rating 18 DAT: 80
Rape; 32 g/ha
  Plant Injury Rating 18 DAT: 100
Safflower; 16 g/ha
  Plant Injury Rating 18 DAT: 100
Safflower; 32 g/ha
  Plant Injury Rating 18 DAT: 100
Sugar beet; 16 g/ha
  Plant Injury Rating 18 DAT: 100
Sugar beet; 32 g/ha
  Plant Injury Rating 18 DAT: 100
Sunflower; 16 g/ha
  Plant Injury Rating 18 DAT: 100
Sunflower; 32 g/ha
  Plant Injury Rating 18 DAT: 100
Vetch; 16 g/ha
  Plant Injury Rating 18 DAT: 100
Vetch; 32 g/ha
  Plant Injury Rating 18 DAT: 100
Wheat; 16 g/ha
  Plant Injury Rating 18 DAT: 100
Wheat; 32 g/ha
  Plant Injury Rating 18 DAT: 100
Yellow mustard; 16 g/ha
  Plant Injury Rating 18 DAT: 100
Yellow mustard; 32 g/ha
  Plant Injury Rating 18 DAT: 100
Sugarcane; 8 g/ha
  Plant Injury Rating 22 DAT: 10
Sugarcane; 16 g/ha
  Plant Injury Rating 22 DAT: 20
Sugarcane; 32 g/ha
  Plant Injury Rating 22 DAT: 30
Annual ryegrass
  Plant Injury Rating 15 DAT: 100
